Experimental data published in ChEMBL document CHEMBL4311997, “Discovery of a potent histone deacetylase (HDAC) 3/6 selective dual inhibitor” (Eur J Med Chem, 2019).
pEC50, pIC50: −log10 of the molar value. Calls of active or inactive are those of the source. The calls are words filed in the database; no cut-off is given here.

Tests used:
[1] = target: Histone-lysine N-methyltransferase SETD7 (Homo sapiens) (UniProt Q8WTS6); experiment: Inhibition of human SET7/9 at 100 uM using core histone as substrate incubated for 1 hr in presence of [3H]-SAM by filter binding method relative to control
[2] = target: Protein arginine N-methyltransferase 1 (Homo sapiens) (UniProt Q99873); experiment: Inhibition of human PRMT1 at 100 uM using histone H4 as substrate incubated for 1 hr in presence of [3H]-SAM by filter binding method relative to control
Chain of Protein arginine N-methyltransferase 1 (Homo sapiens) (Q99873 whole entry, looked up): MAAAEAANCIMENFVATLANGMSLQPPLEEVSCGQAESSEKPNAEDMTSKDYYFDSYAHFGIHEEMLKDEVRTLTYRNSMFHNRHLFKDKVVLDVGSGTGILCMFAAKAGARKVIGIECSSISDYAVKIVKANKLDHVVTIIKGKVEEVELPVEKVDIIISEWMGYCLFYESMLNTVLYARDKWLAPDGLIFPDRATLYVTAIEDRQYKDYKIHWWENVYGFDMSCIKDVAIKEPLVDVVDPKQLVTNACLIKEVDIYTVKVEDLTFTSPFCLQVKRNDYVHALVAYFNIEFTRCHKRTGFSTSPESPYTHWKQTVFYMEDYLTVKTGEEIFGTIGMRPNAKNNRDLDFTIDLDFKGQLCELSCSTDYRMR

[3] = organism: Homo sapiens; experiment: Inhibition of human EZH2 complex at 100 uM using core histone as substrate incubated for 1 hr in presence of [3H]-SAM by filter binding method relative to control
[4] = target: Histone-lysine N-methyltransferase, H3 lysine-79 specific (Homo sapiens) (UniProt Q8TEK3); experiment: Inhibition of human DOT1L at 100 uM using oligo nucleosomes as substrate incubated for 1 hr in presence of [3H]-SAM by filter binding method relative to control
[5] = target: DNA (cytosine-5)-methyltransferase 3A (Homo sapiens, UniProt Q9Y6K1); experiment: Inhibition of human DNMT3a using lambda DNA as substrate incubated for 1 hr in presence of [3H]-SAM by filter binding method
Chain of DNA (cytosine-5)-methyltransferase 3A (Q9Y6K1 whole entry, looked up): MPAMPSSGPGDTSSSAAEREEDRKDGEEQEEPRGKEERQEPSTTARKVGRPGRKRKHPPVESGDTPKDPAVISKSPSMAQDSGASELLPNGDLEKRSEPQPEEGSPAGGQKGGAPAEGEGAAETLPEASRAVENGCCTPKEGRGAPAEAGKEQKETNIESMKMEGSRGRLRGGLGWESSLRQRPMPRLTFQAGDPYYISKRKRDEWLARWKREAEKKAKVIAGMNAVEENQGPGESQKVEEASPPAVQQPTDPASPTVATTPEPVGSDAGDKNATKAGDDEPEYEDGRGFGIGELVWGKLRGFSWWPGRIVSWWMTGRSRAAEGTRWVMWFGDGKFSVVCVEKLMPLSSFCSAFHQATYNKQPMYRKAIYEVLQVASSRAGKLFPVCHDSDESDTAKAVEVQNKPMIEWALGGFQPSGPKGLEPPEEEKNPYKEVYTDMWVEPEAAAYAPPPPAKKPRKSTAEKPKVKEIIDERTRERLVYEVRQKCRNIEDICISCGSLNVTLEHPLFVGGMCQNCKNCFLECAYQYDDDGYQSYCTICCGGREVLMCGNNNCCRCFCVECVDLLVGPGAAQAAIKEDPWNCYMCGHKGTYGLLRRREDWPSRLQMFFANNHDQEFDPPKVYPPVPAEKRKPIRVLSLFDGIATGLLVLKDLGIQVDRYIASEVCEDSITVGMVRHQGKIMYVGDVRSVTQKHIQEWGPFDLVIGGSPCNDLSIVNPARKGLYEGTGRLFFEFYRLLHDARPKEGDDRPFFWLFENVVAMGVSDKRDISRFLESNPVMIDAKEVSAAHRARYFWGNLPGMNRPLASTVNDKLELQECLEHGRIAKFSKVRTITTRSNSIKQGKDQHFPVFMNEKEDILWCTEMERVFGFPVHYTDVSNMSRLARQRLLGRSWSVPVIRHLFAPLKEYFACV

[6] = organism: Homo sapiens; experiment: Selectivity ratio of IC50 for human HDAC3 to IC50 for human HDAC6
[7] = target: Histone deacetylase 4 (Homo sapiens) (UniProt P56524); experiment: Inhibition of human HDAC4 at 10 uM using Acetyl-Lys (trifluoroacetyl)-AMC) as substrate incubated for 2 hrs by fluorescence assay relative to control
Chain of Histone deacetylase 4 (Homo sapiens) (P56524 whole entry): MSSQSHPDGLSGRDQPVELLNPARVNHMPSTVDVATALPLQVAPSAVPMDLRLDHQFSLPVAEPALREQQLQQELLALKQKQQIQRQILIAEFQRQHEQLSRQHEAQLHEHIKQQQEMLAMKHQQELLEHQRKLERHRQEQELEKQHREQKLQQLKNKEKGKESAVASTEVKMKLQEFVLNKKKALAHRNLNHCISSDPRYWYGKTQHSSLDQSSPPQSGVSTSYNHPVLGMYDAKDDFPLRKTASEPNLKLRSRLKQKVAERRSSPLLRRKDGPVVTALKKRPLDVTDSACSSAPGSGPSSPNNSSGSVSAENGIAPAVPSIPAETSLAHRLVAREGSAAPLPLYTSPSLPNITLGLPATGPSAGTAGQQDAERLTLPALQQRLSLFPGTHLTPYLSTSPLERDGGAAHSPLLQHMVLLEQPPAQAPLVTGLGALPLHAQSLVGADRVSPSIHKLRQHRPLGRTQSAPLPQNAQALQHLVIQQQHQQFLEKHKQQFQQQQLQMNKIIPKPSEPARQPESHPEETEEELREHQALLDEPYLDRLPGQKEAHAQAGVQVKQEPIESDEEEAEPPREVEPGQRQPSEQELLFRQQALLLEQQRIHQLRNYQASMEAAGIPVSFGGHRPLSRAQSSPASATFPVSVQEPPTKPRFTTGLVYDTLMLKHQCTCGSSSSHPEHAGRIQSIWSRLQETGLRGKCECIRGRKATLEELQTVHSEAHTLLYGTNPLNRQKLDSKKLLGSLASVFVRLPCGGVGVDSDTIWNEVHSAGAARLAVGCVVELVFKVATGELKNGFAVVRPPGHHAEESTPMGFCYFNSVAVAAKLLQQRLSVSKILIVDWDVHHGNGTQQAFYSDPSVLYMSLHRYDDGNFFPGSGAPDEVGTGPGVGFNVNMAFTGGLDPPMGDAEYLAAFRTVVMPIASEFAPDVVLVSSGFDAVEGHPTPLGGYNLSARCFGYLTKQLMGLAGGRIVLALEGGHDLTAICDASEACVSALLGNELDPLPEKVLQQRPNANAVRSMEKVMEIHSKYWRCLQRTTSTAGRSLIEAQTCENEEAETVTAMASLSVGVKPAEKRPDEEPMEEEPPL

[8] = target: Histone deacetylase 3 (Homo sapiens, UniProt O15379); experiment: Inhibition of human HDAC3 using Arg-His-Lys-Lys (Ac) as substrate incubated for 2 hrs by fluorescence assay
Chain of Histone deacetylase 3 (O15379 whole entry): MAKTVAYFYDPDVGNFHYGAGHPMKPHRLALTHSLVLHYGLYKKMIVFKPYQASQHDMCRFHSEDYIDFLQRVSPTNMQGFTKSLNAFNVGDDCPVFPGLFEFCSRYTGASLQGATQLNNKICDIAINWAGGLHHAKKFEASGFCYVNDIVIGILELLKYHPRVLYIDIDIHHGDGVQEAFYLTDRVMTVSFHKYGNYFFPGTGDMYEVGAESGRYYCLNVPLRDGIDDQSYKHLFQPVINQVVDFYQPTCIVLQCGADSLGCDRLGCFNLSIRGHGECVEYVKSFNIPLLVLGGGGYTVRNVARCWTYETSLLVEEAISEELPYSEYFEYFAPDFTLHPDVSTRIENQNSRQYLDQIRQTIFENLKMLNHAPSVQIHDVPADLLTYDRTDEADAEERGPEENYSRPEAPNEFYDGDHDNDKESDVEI

[9] = target: Histone deacetylase 2 (Homo sapiens, UniProt Q92769); experiment: Inhibition of human HDAC2 using Arg-His-Lys-Lys (Ac) as substrate incubated for 2 hrs by fluorescence assay
Chain of Histone deacetylase 2 (Q92769 whole entry): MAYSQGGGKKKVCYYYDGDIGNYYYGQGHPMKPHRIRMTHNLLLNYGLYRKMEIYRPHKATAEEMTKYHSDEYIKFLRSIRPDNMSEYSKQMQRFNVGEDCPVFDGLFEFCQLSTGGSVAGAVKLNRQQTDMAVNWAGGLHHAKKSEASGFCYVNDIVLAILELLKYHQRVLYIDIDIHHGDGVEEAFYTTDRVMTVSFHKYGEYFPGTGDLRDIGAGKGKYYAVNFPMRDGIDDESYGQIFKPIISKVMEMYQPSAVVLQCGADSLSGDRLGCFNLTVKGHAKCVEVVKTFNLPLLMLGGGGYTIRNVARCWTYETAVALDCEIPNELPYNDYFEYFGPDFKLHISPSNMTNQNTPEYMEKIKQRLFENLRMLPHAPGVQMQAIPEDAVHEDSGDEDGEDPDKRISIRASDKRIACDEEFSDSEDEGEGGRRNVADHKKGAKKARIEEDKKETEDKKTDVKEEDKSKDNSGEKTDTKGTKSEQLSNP

[10] = tested on: MCF7; experiment: Antiproliferative activity against human MCF7 cells incubated for 72 hrs by MTT assay; type: functional, cell-based; details: MCF7, 72 h
[11] = tested on: KMS-12-BM; experiment: Antiproliferative activity against human KMS-12-BM cells incubated for 48 hrs by CellTiter-Glo luminescent cell viability assay; type: functional, cell-based
[12] = tested on: NCI-H929; experiment: Antiproliferative activity against human NCI-H929 cells incubated for 48 hrs by CellTiter-Glo luminescent cell viability assay; type: functional, cell-based; details: NCI-H929, 48 h
[13] = tested on: OPM-2; experiment: Antiproliferative activity against human OPM2 cells incubated for 48 hrs by CellTiter-Glo luminescent cell viability assay; type: functional, cell-based; details: OPM-2, 48 h
[14] = tested on: MDA-MB-231; experiment: Induction of apoptosis in human MDA-MB-231 cells assessed as necrotic cells at 3 uM incubated for 48 hrs by Annexin V-FITC/PI staining by flow cytometric analysis (reference value: 15%); type: functional
[15] = tested on: MDA-MB-231; experiment: Induction of apoptosis in human MDA-MB-231 cells assessed as viable cells at 6 uM incubated for 48 hrs by Annexin V-FITC/PI staining by flow cytometric analysis (reference value: 77%); type: functional; details: MDA-MB-231, 48 h, read-out: Activity
[16] = tested on: MDA-MB-231; experiment: Induction of apoptosis in human MDA-MB-231 cells assessed as late apoptotic cells at 9 uM incubated for 48 hrs by Annexin V-FITC/PI staining by flow cytometric analysis (reference value: 3%); type: functional
[17] = target: Protein deacetylase HDAC6 (Homo sapiens) (UniProt Q9UBN7); experiment: Inhibition of HDAC6 in human KMS-12-BM cells assessed as increase in Ac-Tubulin level at 2.5 to 10 uM incubated for 24 hrs by Western blot analysis; type: cell-based
Chain of Protein deacetylase HDAC6 (Homo sapiens) (Q9UBN7 whole entry): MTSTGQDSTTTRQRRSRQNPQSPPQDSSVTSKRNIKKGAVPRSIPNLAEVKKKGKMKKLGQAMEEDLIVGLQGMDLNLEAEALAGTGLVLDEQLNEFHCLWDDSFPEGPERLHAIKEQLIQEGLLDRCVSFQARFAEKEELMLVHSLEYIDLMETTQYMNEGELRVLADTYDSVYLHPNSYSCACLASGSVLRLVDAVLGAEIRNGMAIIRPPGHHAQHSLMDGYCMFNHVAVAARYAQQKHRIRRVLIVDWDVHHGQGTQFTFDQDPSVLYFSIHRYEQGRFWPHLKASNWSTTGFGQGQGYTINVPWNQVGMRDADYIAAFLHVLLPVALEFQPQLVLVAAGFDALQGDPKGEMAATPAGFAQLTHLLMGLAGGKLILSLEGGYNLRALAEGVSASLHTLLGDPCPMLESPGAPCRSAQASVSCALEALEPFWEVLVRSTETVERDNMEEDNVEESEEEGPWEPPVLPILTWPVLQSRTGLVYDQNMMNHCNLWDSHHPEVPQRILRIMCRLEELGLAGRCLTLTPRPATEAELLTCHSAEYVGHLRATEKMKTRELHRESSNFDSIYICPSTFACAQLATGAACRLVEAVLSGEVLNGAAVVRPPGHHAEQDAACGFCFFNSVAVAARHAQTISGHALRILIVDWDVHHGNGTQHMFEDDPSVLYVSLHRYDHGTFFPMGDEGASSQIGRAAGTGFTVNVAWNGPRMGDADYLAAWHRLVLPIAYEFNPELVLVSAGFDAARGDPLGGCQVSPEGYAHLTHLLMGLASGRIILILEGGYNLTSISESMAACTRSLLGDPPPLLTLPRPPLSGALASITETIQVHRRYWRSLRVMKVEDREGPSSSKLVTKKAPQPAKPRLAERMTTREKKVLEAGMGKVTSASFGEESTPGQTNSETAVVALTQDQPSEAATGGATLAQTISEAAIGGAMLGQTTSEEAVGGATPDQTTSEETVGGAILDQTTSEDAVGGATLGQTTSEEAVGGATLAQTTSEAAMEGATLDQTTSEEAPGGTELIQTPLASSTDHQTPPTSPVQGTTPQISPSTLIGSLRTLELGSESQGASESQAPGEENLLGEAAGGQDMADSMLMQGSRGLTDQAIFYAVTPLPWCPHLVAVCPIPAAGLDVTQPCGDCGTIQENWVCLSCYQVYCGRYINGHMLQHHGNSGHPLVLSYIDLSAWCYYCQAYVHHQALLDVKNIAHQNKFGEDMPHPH

[18] = Therapeutic Index, ratio of EC50 for human AC10 cells to EC50 for human MDA-MB-231 cells; type: toxicity; details: AC10 cells versus MDA-MB-231 cells, read-out: Ratio EC50
[19] = Therapeutic Index, ratio of EC50 for mouse TAMH cells to EC50 for human MDA-MB-231 cells; type: toxicity; details: TAMH cells versus MDA-MB-231 cells, read-out: Ratio EC50
[20] = Cytotoxicity against human AC10 cells incubated for 24 hrs by CellTiter-Glo Cell Viability Assay; type: cell-based; details: AC10, 24 h
[21] = Half life in female rat liver microsomes at 3 uM preincubated for 5 mins followed by NADPH addition and measured up to 45 mins by LC-MS/MS analysis; type: ADME, Microsome
[22] = Intrinsic clearance in female rat liver microsomes at 3 uM preincubated for 5 mins followed by NADPH addition and measured up to 45 mins by LC-MS/MS analysis; type: ADME, Microsome
[23] = tested on: Plasmodium falciparum; experiment: microbe, parasite or virus in culture; type: functional, organism-based; details: K1, 48 h
Description: Antimalarial activity against ring stage Plasmodium falciparum K1 incubated for 48 hrs by Hoechst 33342 staining based fluorescence based assay

[24] = target: Histone deacetylase 11 (Homo sapiens, UniProt Q96DB2); experiment: Inhibition of human HDAC11 using Acetyl-Lys (trifluoroacetyl)-AMC) as substrate incubated for 2 hrs by fluorescence assay
Chain of Histone deacetylase 11 (Q96DB2 whole entry): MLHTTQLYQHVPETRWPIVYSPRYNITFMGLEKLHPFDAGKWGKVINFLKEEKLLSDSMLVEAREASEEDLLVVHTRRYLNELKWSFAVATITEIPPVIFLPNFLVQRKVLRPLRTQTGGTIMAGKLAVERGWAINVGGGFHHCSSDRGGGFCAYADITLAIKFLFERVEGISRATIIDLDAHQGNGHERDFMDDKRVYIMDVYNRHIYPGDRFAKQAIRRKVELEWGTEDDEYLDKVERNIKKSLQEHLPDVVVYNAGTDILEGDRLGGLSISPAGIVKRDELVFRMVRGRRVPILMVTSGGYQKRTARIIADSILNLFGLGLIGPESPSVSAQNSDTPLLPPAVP

[25] = organism: Homo sapiens; experiment: Selectivity ratio of IC50 for human HDAC4 to IC50 for human HDAC6
[26] = organism: Homo sapiens; experiment: Selectivity ratio of IC50 for human HDAC5 to IC50 for human HDAC6
[27] = organism: Homo sapiens; experiment: Selectivity ratio of IC50 for human HDAC9 to IC50 for human HDAC6
[28] = target: Histone deacetylase 1 (Homo sapiens, UniProt Q13547)
Description: Inhibition of human HDAC1 using Arg-His-Lys-Lys (Ac) as substrate incubated for 2 hrs by fluorescence assay

In the case of `COc1ccc(CN2CCC(Nc3nc(Nc4ccc(NC(=O)CCCCCCC(=O)NO)cc4)nc4cc(OC)c(OC)cc34)CC2)cc1`, the inhibition [1] was 19%, the inhibition [2] was “inactive” and the inhibition [3] was 27%. The inhibition [4] was 16%, the pIC50 [5] was 4.13 and the Ratio IC50 [6] was 13. The inhibition [7] was 20%, the pIC50 [8] was 7.47 and the pIC50 [9] was 5.95. The pEC50 [10] was 5.14, the pEC50 [11] was 5.12 and the pEC50 [12] was 5.34. The pEC50 [13] was 5.10, the Activity [14] was 15% and the viability at 6 µM [15] was 52%. For the same compound, the Activity [16] was 11%, the inhibition [17] was “Active” and the selectivity ratio [18] was 15. For the same compound, the selectivity ratio [19] was 5, the pEC50 [20] was 4.03 and the half-life at 3 µM [21] was 1.73 h. The microsomal CLint at 3 µM [22] was 22.3 µL/min/mg, the pIC50 [23] was 6.29 and the pIC50 [24] was 5.74. The Ratio IC50 [25] was > 3000, the Ratio IC50 [26] was > 3000 and the Ratio IC50 [27] was > 3000. For the same compound, the pIC50 [28] was 6.05.
